Values joined by “and” are separate entries in the source; they are usually repeats but may differ in a detail not shown here. Identical values can stand only once.
Assays:
Mus musculus [1] = details: chronic, M/F; for LEL / NOEL: diet
Mus musculus [2] = details: duration: 10 days, inhalation, CF1
Oryctolagus sp. = details: duration: 13 days, inhalation, New Zealand
Rattus norvegicus [3] = details: duration: 10 days, inhalation, Sprague-Dawley
Rattus norvegicus [4] = details: repeat dose other; oral
Rattus norvegicus [5] = details: oral, M/F
Mus musculus [6] = details: developmental; duration: 9 days; inhalation; whole body; M/F; CF1; developmental
Rattus norvegicus [7] = details: M/F
Rattus norvegicus [8] = details: chronic, oral, Whole Body Effects; for NOAEL: diet, M, Fischer 344
Canidae = details: chronic, oral, diet, M/F, Dog Other
Rattus norvegicus [9] = details: oral, gavage
Rattus norvegicus [10] = details: Hershberger; duration: 10 days; oral; gavage; Sprague-Dawley; active + Negative + Antiandrogenic + anti-androgenic + Delayed PPS and decreased AST wt at 375 / bw decreased 6-7% / increased liver wt in…
Rattus norvegicus [11] = details: subchronic, duration: 13 weeks
[12] = duration: 2 years, oral, centrilobular hepatocytomegaly (males)
[13] = chronic, diet, liver cell polymorphism
[14] = duration: 1 years, increased serum cholesterol, alkaline phosphatase, and relative liver and kidney weight, and decreased alanine transaminase and adrenal …
[15] = short-term, duration: 28 days, M, Sprague-Dawley, Clinical Observation: Respiratory rate decrease, Incomplete eyelid opening SalivationSpontaneous locomotion decrease + Body Weight Changes: …
[16] = short-term, duration: 28 days, M, Sprague-Dawley, Clinical Observation: Spontaneous locomotion decrease, Respiratory rate decrease, Salivation + Body Weight Changes: decrease + Food …
[17] = duration: 6 months, liver and thyroid effects
[18] = duration: 20 months, oral, increased absolute liver weight and nonneoplastic lesions
[19] = duration: 2 years, Increased mean blood sugar concentration + slight hypothermia
[20] = inhalation, B6C3F1, suppurative inflammation of the nose
[21] = duration: 2 years, reduced body weight gain
[22] = subchronic, mortality and body weight loss

## COc1nc(C)nc(NC(=O)NS(=O)(=O)c2ccccc2OCCCl)n1 [Triasulfuron]
Mus musculus [1]; [12]
  LEL: 129 mg/kg-day
  NOEL: 1.2 mg/kg-day

## C=CCl [Vinyl chloride]
Mus musculus [2]; developmental
  NOAEL: 1280 mg/m3
Mus musculus [2]; reproduction developmental, F
  NOAEL: 128 mg/m3
Oryctolagus sp.; developmental
  NOAEL: 6390 mg/m3
Oryctolagus sp.; reproduction developmental, F
  NOAEL: < 1280 mg/m3
Rattus norvegicus [3]; developmental
  NOAEL: 6390 mg/m3
Rattus norvegicus [3]; reproduction developmental, F
  NOAEL: < 1280 mg/m3
Rattus norvegicus [4]
  LOAEL: 1.7 mg/kg-day
  NOAEL: 0.17 mg/kg-day
Rattus norvegicus [5]; [13]
  LOAEL: 1.3 mg/kg-day
  NOAEL: 0.13 mg/kg-day
Mus musculus [6]
  NOAEL: 128 mg/m3
Rattus norvegicus [7]; chronic, duration: 149 weeks, oral, diet, Wistar, hepatic
  NOAEL: 0.17 mg/kg-day

## Clc1ccc2oc3c(Cl)c(Cl)c(Cl)c(Cl)c3c2c1 [Dibenzofuran, 1,2,3,4,8-pentachloro-]
Rattus norvegicus [4]
  NOAEL: 0.048 mg/kg-day

## [Cl][Sb]([Cl])[Cl] [Antimony trichloride]
Rattus norvegicus [8]; duration: 2 years, drinking water, M/F, Long-Evans
  LOAEL: 0.35 mg/kg-day

## Cc1c(N)cccc1N [2,6-Toluenediamine]
Rattus norvegicus [8]; duration: 2 years
  NOAEL: 25 mg/kg-day
Rattus norvegicus [8]; duration: 91 days
  NOAEL: 62 mg/kg-day

## CCCN(CCC)c1c([N+](=O)[O-])cc(S(N)(=O)=O)cc1[N+](=O)[O-] [Oryzalin]
Canidae; [14]
  LEL: 50 mg/kg-day
  NOEL: 5 mg/kg-day

## ClC(Cl)Br [Bromodichloromethane]
Rattus norvegicus [9]; [15]
  NOAEL: 40 mg/kg-day
  NOEL: < 40 mg/kg-day
Rattus norvegicus [9]; [16]
  NOAEL: 40 mg/kg-day
  NOEL: < 40 mg/kg-day
Rattus norvegicus [9]; subchronic, duration: 13 weeks, M/F, Fischer 344, Deaths + Body Weight Changes: decrease + Histopathology: Liver/centrilobular-Degeneration Liver/bile duct -Hyperplasia Liver-Enlargement, …
  NOEL: 38 mg/kg-day
Mus musculus [1]; oral, gavage, renal cytomegaly
  LOAEL: 25 mg/kg-day

## O=[Se](=O)([O-])[O-] [Selenate]
Rattus norvegicus [4]
  LOAEL: 0.33 mg/kg-day
  NOAEL: 0.2 mg/kg-day

## CNc1cnn(-c2cccc(C(F)(F)F)c2)c(=O)c1Cl [Norflurazon]
Canidae; [17]
  LEL: 10.2 mg/kg-day
  NOEL: 3.75 mg/kg-day
Rattus norvegicus [10]
  LOEL: 375 mg/kg-day and 1000 mg/kg-day
  NOEL: 185 mg/kg-day and 300 mg/kg-day

## CCOc1cc(Oc2ccc(C(F)(F)F)cc2Cl)ccc1[N+](=O)[O-] [Oxyfluorfen]
Mus musculus [1]; [18]
  LEL: 3 mg/kg-day
  NOEL: 0.3 mg/kg-day

## CCC1CO1 (stereo not given) [1,2-Epoxybutane]
Mus musculus [1]; duration: 2 years, inhalation, degenerative lesions of the nasal cavity
  LOAEL: 147 mg/m3

## Cc1ccc(N=CN(C)C=Nc2ccc(C)cc2C)c(C)c1 [Amitraz]
Canidae; [19]
  LEL: 1 mg/kg-day
  NOEL: 0.25 mg/kg-day

## ClC1=C(Cl)C(Cl)(Cl)C(Cl)=C1Cl [Hexachlorocyclopentadiene]
Mus musculus [1]; [20]
  LOAEL: 2.23 mg/m3
  NOAEL: 0.56 mg/m3
Rattus norvegicus [7]; chronic, duration: 2 years, inhalation, Fischer 344, respiratory
  LOAEL: 0.112 mg/m3
Rattus norvegicus [7]; chronic, duration: 14 weeks, inhalation, Sprague-Dawley, respiratory
  NOAEL: 2.23 mg/m3
Rattus norvegicus [7]; subchronic, duration: 13 weeks, oral, gavage, Fischer 344, renal
  NOAEL: 19 mg/kg-day
Rattus norvegicus [11]; inhalation, intermittent, Nasal cavity: Squamous metaplasia
  NOAEL: 1.67 mg/m3
Rattus norvegicus [11]; oral, Forestomach: Lesions
  NOAEL: 7.1 mg/kg-day

## C=CCOC(Cn1ccnc1)c1ccc(Cl)cc1Cl (stereo not given) [Imazalil]
Canidae; [21]
  LEL: 5 mg/kg-day
  NOEL: 1.25 mg/kg-day

## CCOC(C)=O [Ethyl acetate]
Rattus norvegicus [4]
  LOAEL: 360 mg/kg-day
  NOAEL: 90 mg/kg-day
Rattus norvegicus [5]; [22]
  LOAEL: 3600 mg/kg-day
  NOEL: 900 mg/kg-day

Source: EPA's ToxValDB 9.5
